From ChEMBL document CHEMBL1151357, “Inhibition of Plant Growth by Phenethylamines and Tetrahydroisoquinolines” (1981) come the findings set out here.

Active and inactive are the calls of the source. The rule behind the calls is not given here.

One assay concerns Phaseolus vulgaris. The assay can be described thus: Growth promoting activity in pinto bean plants at =>150 ug after 4 days. It counts as functional, organism-based.
In the case of `O=C1CCC2(C(=O)O)c3cc(O)c(O)cc3CCN12` (stereo unspecified), the outcome was Active.
Turning to `CN1CCc2cc3c(c(O)c2C1)OCO3.Cl`, the result was Active.
Same read-out and setting: under `O=C(O)C1NCCc2cc(O)c(O)cc21` (stereo unspecified) stands “Active”; under `CC1(C(=O)O)NCCc2cc(O)c(O)cc21` (stereo unspecified), “Active”.

The next assay has as its system Phaseolus vulgaris. The assay can be described thus: Phytotoxicity against pinto bean plants assessed as induction of necrosis at 50 ug after 4 days. It counts as functional, organism-based.
As to `COc1cc2c(c(OC)c1OC)CNCC2`, the outcome was Active.
Take `COc1cc(CC[N+](C)(C)C)cc(OC)c1OC.[I-]` [TRICHOCERINE METHYL IODIDE]: the outcome was Active.
Same read-out and setting: in the case of `COc1cc(CCN)cc(O)c1OC.Cl` it was “Active”; in that of `COc1cc2c(cc1OC)[C@H](C)N(C)CC2.Cl` [CARNEGINE HYDROCHLORIDE], “Active”; in that of `COc1cc2c(c(O)c1OC)[C@H](C)[N+](C)(C)CC2.[I-]`, “Active”.
The same measure, in the same setting: in the case of `C[N+](C)(C)CCc1ccc(O)cc1.[I-]` [CANDICINE IODIDE] it was “Active”.
For `COc1cc2c(c(OC)c1OC)[C@H](C)[N+](C)(C)CC2.[I-]`, the result was Active.

A further assay concerns Sorghum bicolor. The assay can be described thus: Growth inhibition of Rio sorghum seedlings assessed as shoot growth from seed coat to tip of second leaf at 1 mg/ml after 4 days. Format: functional.
As for `Cl.NCCc1ccc(O)c(O)c1` [DOPAMINE HYDROCHLORIDE], the Activity is listed as 40.44 mm.
`COc1cc(CC[N+](C)(C)C)cc(OC)c1OC.[I-]` [TRICHOCERINE METHYL IODIDE]: the Activity is 36.22 mm.
For the compound `C[N+](C)(C)CCc1ccc(O)cc1.[I-]` [CANDICINE IODIDE], the Activity is on record as 33.22 mm.

The next assay concerns Phaseolus vulgaris. Description: Phytotoxicity against pinto bean plants assessed as induction of necrosis at 150 ug after 4 days. It counts as functional, organism-based.
With `COc1cc2c(c(OC)c1OC)CNCC2`, the result was Active.
Still for that read-out and setting: under `COc1cc([C@@H](O)[C@H](C)N)cc(OC)c1OC` stands “Active”; under `COc1cc([C@@H](O)[C@H](C)N)cc(O)c1OC.O=C(O)C(=O)O`, “Active”; under `COc1cc(CC[N+](C)(C)C)cc(OC)c1OC.[I-]` [TRICHOCERINE METHYL IODIDE], “Active”.
On the same count and under the same terms, in the case of `COc1cc(CCN)cc(O)c1OC.Cl` it was “Active”.
On the same count and under the same terms, under `C[N+](C)(C)CCc1ccc(O)cc1.[I-]` [CANDICINE IODIDE] stands “Active”; under `COc1ccc2c(c1OC)C(C)N(C)CC2.Cl` (racemic), “Active”.

Another assay concerns Phaseolus vulgaris. Description: Growth inhibition of pinto bean plants assessed as inhibition of second inter node elongation at 50 ug after 4 days relative to control. Format: functional.
For the compound `COc1cc(CCn2cccc2)cc(OC)c1OC` [DECARBOXYPEYONINE], the “inhibition (INH)” value was 51%.
Take `O=C1CCC2(C(=O)O)c3cc(O)c(O)cc3CCN12` (stereo unspecified): the “inhibition (INH)” value was determined as 26%.
The same measure, in the same setting: in the case of `Cl.NCC(O)c1cccc(O)c1` (stereo unspecified) [NORPHENYLEPHRINE HYDROCHLORIDE] it was 26%; in that of `COc1cc2c(c(OC)c1OC)C(C)NCC2.Cl` (racemic), 26%.
With `Cl.NCCc1cc(O)c(O)cc1O` [OXIDOPAMINE HYDROCHLORIDE], the “inhibition (INH)” value is recorded as 26%.
On the same count and under the same terms, in the case of `COc1cc2c(c(O)c1OC)[C@H](C)N(C)CC2.Cl` [PELLOTINE HYDROCHLORIDE] it was 26%; in that of `Cl.NCCc1ccc(O)c(O)c1` [DOPAMINE HYDROCHLORIDE], 26%.
For the compound `COc1cc(CCn2cccc2C(=O)O)cc(OC)c1OC` [PEYONINE], the “inhibition (INH)” value came to 0%.
Regarding `COc1cc([C@@H](O)[C@H](C)N)cc(OC)c1OC.O=C(O)C(=O)O`, the “inhibition (INH)” value was 26%.
Same read-out and setting: in the case of `COc1cc2c(cc1O)CCN[C@H]2C.Cl` [SALSOLINE HYDROCHLORIDE] it was 26%.
On the same count and under the same terms, under `COc1cc([C@@H](O)[C@H](C)N)cc(O)c1OC.O=C(O)C(=O)O` stands 0%.
As for `COc1cc(CC[N+](C)(C)C)cc(OC)c1OC.[I-]` [TRICHOCERINE METHYL IODIDE], the “inhibition (INH)” value worked out at 76%.
`COC(=O)c1cccn1CCc1cc(OC)c(OC)c(OC)c1` [PEYONINE METHYL ESTER]: the “inhibition (INH)” value is 0%.
Still for that read-out and setting: in the case of `COc1cc(CCN)cc(O)c1OC.Cl` it was 76%; in that of `COc1cc2c(c(OC)c1OC)C(O)CNC2` (stereo unspecified), 0%; in that of `COc1cc2c(cc1OC)[C@H](C)N(C)CC2.Cl` [CARNEGINE HYDROCHLORIDE], 100%.
`CN1CCc2cc3c(c(O)c2C1)OCO3.Cl`: the “inhibition (INH)” value came out at 0%.
Same read-out and setting: under `COc1cc2c(c(O)c1OC)[C@H](C)[N+](C)(C)CC2.[I-]` stands 0%; under `C[N+](C)(C)CCc1ccc(O)cc1.[I-]` [CANDICINE IODIDE], 76%.
The same measure, in the same setting: in the case of `COc1cc2c(c(OC)c1OC)[C@H](C)[N+](C)(C)CC2.[I-]` it was 26%; in that of `COc1cc(CCN)cc(OC(=O)c2ccccc2)c1OC.Cl`, 51%.
For the compound `O=C(O)C1NCCc2cc(O)c(O)cc21` (stereo unspecified), the “inhibition (INH)” value was 26%.
The same measure, in the same setting: in the case of `COc1cc([C@@H](O)[C@H](C)N)cc(OC)c1OC.O=C(O)C(O)C(O)C(=O)O` it was 26%; in that of `COc1c(OC(=O)c2ccccc2)c(OC(=O)c2ccccc2)cc2c1C(C)NCC2.Cl` (stereo unspecified), 26%.
Regarding `COc1ccc2c(c1OC)C(C)N(C)CC2.Cl` (racemic), the “inhibition (INH)” value is given as 26%.
On the same count and under the same terms, in the case of `CC1(C(=O)O)NCCc2cc(O)c(O)cc21` (stereo unspecified) it was 51%; in that of `COc1cc([C@@H](O)[C@H](C)N)cc(OC)c1OC.Cl`, 26%.
On the same count and under the same terms, in the case of `CI.COc1cc2c(c(OC)c1OC)CNCC2` [ANHALININE METHYLIODIDE] it was 100%.
Still for that read-out and setting: under `COc1cc2c(c(OC)c1OC)CNCC2.Cl` [ANHALININE HYDROCHLORIDE] stands 0%.

The test system of another assay is Phaseolus vulgaris. The assay can be described thus: Growth inhibition of pinto bean plants assessed as inhibition of second inter node elongation at 150 ug after 4 days relative to control. It counts as functional.
Regarding `COc1cc(CCn2cccc2)cc(OC)c1OC` [DECARBOXYPEYONINE], the “inhibition (INH)” value turned out to be 26%.
As to `O=C1CCC2(C(=O)O)c3cc(O)c(O)cc3CCN12` (stereo unspecified), the “inhibition (INH)” value is 26%.
Same read-out and setting: in the case of `COc1cc2c(c(OC)c1OC)C(C)NCC2.Cl` (racemic) it was 51%; in that of `Cl.NCCc1cc(O)c(O)cc1O` [OXIDOPAMINE HYDROCHLORIDE], 26%.
Still for that read-out and setting: under `COc1cc2c(c(O)c1OC)[C@H](C)N(C)CC2.Cl` [PELLOTINE HYDROCHLORIDE] stands 0%; under `Cl.NCCc1ccc(O)c(O)c1` [DOPAMINE HYDROCHLORIDE], 0%; under `COc1cc([C@@H](O)[C@H](C)N)cc(OC)c1OC.O=C(O)C(=O)O`, 0%.
On the same count and under the same terms, under `COc1cc2c(cc1O)CCN[C@H]2C.Cl` [SALSOLINE HYDROCHLORIDE] stands 51%; under `COc1cc([C@@H](O)[C@H](C)N)cc(O)c1OC.O=C(O)C(=O)O`, 26%.
For `COc1cc(CC[N+](C)(C)C)cc(OC)c1OC.[I-]` [TRICHOCERINE METHYL IODIDE], the “inhibition (INH)” value came to 76%.
Same read-out and setting: in the case of `COc1cc(CCN)cc(O)c1OC.Cl` it was 76%.
On the same count and under the same terms, in the case of `COc1cc2c(c(OC)c1OC)C(O)CNC2` (stereo unspecified) it was 0%; in that of `COc1cc2c(cc1OC)[C@H](C)N(C)CC2.Cl` [CARNEGINE HYDROCHLORIDE], 100%.
Same read-out and setting: in the case of `CN1CCc2cc3c(c(O)c2C1)OCO3.Cl` it was 0%; in that of `COc1cc2c(c(O)c1OC)[C@H](C)[N+](C)(C)CC2.[I-]`, 51%; in that of `C[N+](C)(C)CCc1ccc(O)cc1.[I-]` [CANDICINE IODIDE], 76%.
In the case of `COc1cc2c(c(OC)c1OC)[C@H](C)[N+](C)(C)CC2.[I-]`, the “inhibition (INH)” value was determined as 51%.
The same measure, in the same setting: under `COc1cc(CCN)cc(OC(=O)c2ccccc2)c1OC.Cl` stands 0%.
Regarding `O=C(O)C1NCCc2cc(O)c(O)cc21` (stereo unspecified), the “inhibition (INH)” value is 26%.
Regarding `COc1cc([C@@H](O)[C@H](C)N)cc(OC)c1OC.O=C(O)C(O)C(O)C(=O)O`, the “inhibition (INH)” value is on record as 0%.
Still for that read-out and setting: in the case of `COc1c(OC(=O)c2ccccc2)c(OC(=O)c2ccccc2)cc2c1C(C)NCC2.Cl` (stereo unspecified) it was 26%.
The same measure, in the same setting: under `COc1ccc2c(c1OC)C(C)N(C)CC2.Cl` (racemic) stands 100%; under `CC1(C(=O)O)NCCc2cc(O)c(O)cc21` (stereo unspecified), 0%; under `COc1cc([C@@H](O)[C@H](C)N)cc(OC)c1OC.Cl`, 26%.
On the same count and under the same terms, under `CI.COc1cc2c(c(OC)c1OC)CNCC2` [ANHALININE METHYLIODIDE] stands 100%; under `COc1cc2c(c(OC)c1OC)CNCC2.Cl` [ANHALININE HYDROCHLORIDE], 100%.
